This note sets out measurements from US20250057944A1, “OLIGOSACCHARIDE COMPLEXES AND USES” (BioNTech SE, priority 2021, published 2025).

The structures appear in SMILES notation.

Data set [1] is described as follows: Hydrodynamic diameter of complexes by dynamic light scattering. The data set is classed as physicochemical. The procedure: Sizes of complexes described in the present examples were analyzed by DynaPro PlateReader II, using dynamic light scattering (DLS) for calculating the hydrodynamic diameter of complexes. […] Ten acquisitions are recorded per well, each lasting 5 seconds.

Data set [2] relates to BALB/c mice. The data set can be described thus: In-vivo luciferase expression in applied tissue after i.m. application of RNA complexes. The following applies: N/P 6 (FIG. 7B).
Data set [3] deals with BALB/c mice. Conditions: mouse, in vivo.
The subject of data set [4] is BALB/c mice. Conditions: mouse, in vivo. This is another data set of the same source.
Another data set has as its system C57BL/6 IFNAR −/− mice. The data set is classed as in vivo.
Another data set relates to hPBMCs. The data set can be described thus: Cytokine secretion by hPBMCs 24 h after transfection with modRNA formulations (MSD kit). The data set is classed as cell-based, human. The following applies: oligosaccharide:Tween40 1:0.5, modRNA, N/P 6, 24 hours (FIGS. 19A-D). The procedure: All groups received modRNA formulated at N/P 6. Formulations were complexed with RNA in MBG Buffer (final concentration 5% w/v Glucose, 10 mM MES, pH 6.1), at RNA final concentration of 0.15 mg/ml and the mixing ratio of the RNA containing solution and the oligosaccharide+Tween40 containing solution was 9:1 (v:v) for all the cases. IL-6, TNF-α, IL-1β and IFN-γ secretion after 24 hours of transfection of […] hPMBCs was evaluated in the supernatants using MSD Kit Standard Protocol.

Data set [5] relates to BALB/c mice. The data set can be described thus: Intramuscular vaccination with HA modRNA formulated with oligosaccharide+Tween40 (Example 10). The following applies: mouse, in vivo.

On to `CCCCCCCCCC(=O)OC1C(OC(=O)CCCCCCCCC)[C@H](OC(=O)CCCCCCCCC)C(CSCCNC(=S)NCCN(C)C)O[C@@H]1O[C@H]1OC(CSCCNC(=S)NCCN(C)C)[C@@H](OC(=O)CCCCCCCCC)C(OC(=O)CCCCCCCCC)C1OC(=O)CCCCCCCCC` (stereo partly drawn) [JLF41], for which, in data set [1] (modRNA (FIG. 6A)), the “Difference in particle size between N/P 1 and N/P 6” value is given as “greater difference in particle size”.
For the molecule `CCCCCCCCCC(=O)OC1C(OC(=O)CCCCCCCCC)[C@H](OC(=O)CCCCCCCCC)C(CSCCNC(=S)NCCN2CCOCC2)O[C@@H]1O[C@H]1OC(CSCCNC(=S)NCCN2CCOCC2)[C@@H](OC(=O)CCCCCCCCC)C(OC(=O)CCCCCCCCC)C1OC(=O)CCCCCCCCC` (stereo partly drawn) [JLF99], in data set [1] (saRNA, N/P 6 (FIG. 5A)), the Hydrodynamic diameter result is listed as “about 150 nm”. In the data set with BALB/c mice [2], the “modRNA expression (bioluminescence normalized to the JLF41-modRNA group)” value is listed as “promising modRNA expression”. In the data set with BALB/c mice [3], the “CD4-CD8 response versus LNP benchmark” value is listed as “no significant difference”, the “IgG against HA-antigen over the course of the experiment versus LNP benchmark” value is on record as “no apparent differences” and the “Serological concentration of IgG at the end-point (day 49)” value is on record as “comparable to the LNP group”. Also, the “Delivery of RNAs and immune response” value in the data set with BALB/c mice [4] is “functionally delivered all the RNAs upon i.m injection and elicited a strong immune response”. Besides, in the data set on C57BL/6 IFNAR −/− mice (JLF99+Tween40 1:0.5, 1.3 μg saRNA i.m., prime/boost d0/d28, N/P6), the “Immunological response with CCHFV-Gc antigen” value is on record as “strong immunological response”. Also, in the data set with C57BL/6 IFNAR −/− mice (mouse, in vivo), the “Antibody level versus LNP” value was “lower than the LNP”, the “Antibody levels versus LNP benchmark” value was “identical to the ones achieved by the LNP benchmark” and the “T-cell responses against Gc-peptides” value is listed as “equally strong”.
Turning to `CCCCCCCCCC(=O)OC1C(OC(=O)CCCCCCCCC)[C@H](OC(=O)CCCCCCCCC)C(CSCCNC(=S)NCCn2ccnc2)O[C@@H]1O[C@H]1OC(CSCCNC(=S)NCCn2ccnc2)[C@@H](OC(=O)CCCCCCCCC)C(OC(=O)CCCCCCCCC)C1OC(=O)CCCCCCCCC` (stereo partly drawn) [JLF110], the “Level of secretion of pro-inflammatory cytokines, IL-6, TNF-α, IL-1β and IFN-γ” value with hPBMCs is reported as “medium levels of secretion”.
As for `CCCCCCCCCC(=O)OC[C@@]1(O[C@H]2OC(CSCCNC(=S)NCCN3CCOCC3)[C@@H](OC(=O)CCCCCCCCC)[C@H](OC(=O)CCCCCCCCC)C2OC(=O)CCCCCCCCC)O[C@H](CSCCNC(=S)NCCN2CCOCC2)[C@@H](OC(=O)CCCCCCCCC)[C@@H]1OC(=O)CCCCCCCCC` (stereo partly drawn) [JLF218], in the data set on BALB/c mice [5], the “IgG concentration against HA” value is “then by JLF99 and JLF218”.
For the molecule `CCCCCCCCCC(=O)OC1C(OC(=O)CCCCCCCCC)[C@H](OC(=O)CCCCCCCCC)C(CSCCNC(=S)NCCN2CCC(C(N)=O)CC2)O[C@@H]1O[C@H]1OC(CSCCNC(=S)NCCN2CCC(C(N)=O)CC2)[C@@H](OC(=O)CCCCCCCCC)C(OC(=O)CCCCCCCCC)C1OC(=O)CCCCCCCCC` (stereo partly drawn) [JLF244], the “Level of secretion of pro-inflammatory cytokines, IL-6, TNF-α, IL-1β and IFN-γ” value in the data set with hPBMCs is “highest level of secretion”. In the data set on BALB/c mice [5], the “IgG concentration against HA” value is reported as “highest IgG concentration”.
